Test results taken from PMC7983974 (Basic & Clinical Pharmacology & Toxicology, 2020).
“And” between values parts separate entries of the source, which are not always exact repeats. Equal values may be shown once. Read-outs that look alike come from different tables or passages of the source.

Experiments:
[1] = molecular target: T1, UGT-mediated glucuronidation of molidustat in human liver microsomes (HLMs) (Homo sapiens, UniProt P22309); assay: Inhibition of M1 formation from molidustat in pooled human liver microsomes; type: in vitro ADME; settings: pooled HLMs 0.3 mg/mL, molidustat 5 µmol/L, 30 min, N=1; Table 1
T1 sequence (P22309 26-533): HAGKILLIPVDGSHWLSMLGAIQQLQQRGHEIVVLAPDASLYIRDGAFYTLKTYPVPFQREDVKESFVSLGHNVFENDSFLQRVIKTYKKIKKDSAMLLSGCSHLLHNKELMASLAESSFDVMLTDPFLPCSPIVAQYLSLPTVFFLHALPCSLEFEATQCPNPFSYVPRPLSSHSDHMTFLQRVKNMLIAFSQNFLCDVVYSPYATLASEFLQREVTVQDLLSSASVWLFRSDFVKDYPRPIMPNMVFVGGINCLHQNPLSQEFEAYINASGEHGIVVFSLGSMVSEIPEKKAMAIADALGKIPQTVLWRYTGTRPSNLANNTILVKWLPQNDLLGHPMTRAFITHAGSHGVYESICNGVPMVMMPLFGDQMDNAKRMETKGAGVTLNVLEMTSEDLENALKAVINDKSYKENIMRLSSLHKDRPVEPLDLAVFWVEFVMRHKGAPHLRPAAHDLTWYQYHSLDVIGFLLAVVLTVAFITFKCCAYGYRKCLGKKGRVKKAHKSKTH

[2] = system: molidustat glucuronidation (clearance); assay: In vitro-in vivo scaling: predicted increase in molidustat AUC; design: species or system human; settings: fm 0.9; unbound hepatic inlet concentration, ka 0.1 min^−1
[3] = molecular target: T2, UGT-mediated glucuronidation of molidustat (M1 formation) (Homo sapiens, UniProt P22309); assay: Inhibition of M1 formation from molidustat in pooled human liver microsomes; type: in vitro ADME; settings: human, pooled human liver microsomes, probe molidustat 5 µmol/L (formation of M1), IC50, pooled HLMs 0.3 mg/mL, N=1, Table 1
T2 sequence (P22309 26-533): T1 sequence (P22309 26-533)

[4] = system: pooled human liver microsomes; assay: Isoform-specific UGT inhibitors on M1 formation in human liver microsomes; type: in vitro ADME; settings: inhibitor 10 µmol L^−1; for inhibitory activity on M1 formation: liver, intestine and kidney microsomes
[5] = cited from earlier work
[6] = system: pooled human intestine microsomes; assay: Isoform-specific UGT inhibitors on M1 formation in human intestine microsomes; type: in vitro ADME; settings: inhibitor 10 µmol L^−1; molidustat 4.9 µmol L^−1; n = 2
[7] = system: pooled human kidney microsomes; assay: Isoform-specific UGT inhibitors on M1 formation in human kidney microsomes; type: in vitro ADME; settings: inhibitor 10 µmol L^−1; molidustat 4.9 µmol L^−1; n = 2
[8] = type: in vivo, human; settings: for t max: n = 13, median and range
[9] = (Molidustat + atazanavir)/molidustat, ANOVA

Compound `C#C[C@]1(O)CC[C@H]2[C@@H]3CCc4cc(O)ccc4[C@H]3CC[C@@]21C` [17a‐Ethynylestradiol] has an IC50 [1] of 10.8 µM.

With `COC(=O)N[C@H](C(=O)N[C@@H](Cc1ccccc1)[C@@H](O)CN(Cc1ccc(-c2ccccn2)cc1)NC(=O)[C@@H](NC(=O)OC)C(C)(C)C)C(C)(C)C` [Atazanavir] the “AUCRinlet, ka 0.1 min^−1 (estimated increase in molidustat AUC)” value [2] was “more than fivefold”.

For `C#Cc1cccc(Nc2ncnc3cc(OCCOC)c(OCCOC)cc23)c1` [Erlotinib], the “AUCRinlet, ka 0.1 min^−1 (estimated increase in molidustat AUC)” value [2] was “more than fivefold” and the IC50 at 30 min [3] was 0.13 µM.

Compound `Cc1ccc(C)c(OCCCC(C)(C)C(=O)O[C@@H]2O[C@H](C(=O)O)[C@@H](O)[C@H](O)[C@H]2O)c1` [Gemfibrozil glucuronide] has an IC50 [1] of 96.1 µM.

In the case of `Cc1cccc(Nc2ccccc2C(=O)O)c1C` [Mefenamic acid], the IC50 at 30 min [3] is reported as 16 µM and the “inhibitory activity on M1 formation” value [4] is reported as “none or very little activity”.

In the case of `COCC(=O)O[C@]1(CCN(C)CCCc2nc3ccccc3[nH]2)CCc2cc(F)ccc2[C@@H]1C(C)C` [Mibefradil], the IC50 at 30 min [3] is reported as 20.2 µM.

Work on `Clc1ccc(COC(Cn2ccnc2)c2ccc(Cl)cc2Cl)c(Cl)c1` (stereo not drawn) [Miconazole] yielded an IC50 at 30 min [3] of 19.3 µM.

`Cc1ncc2n1-c1ccc(Cl)cc1C(c1ccccc1F)=NC2` [Midazolam] showed an IC50 at 30 min [3] of 11.1 µM.

In the case of `CC#C[C@]1(O)CC[C@H]2[C@@H]3CCC4=CC(=O)CCC4=C3[C@@H](c3ccc(N(C)C)cc3)C[C@@]21C` [Mifepristone], the IC50 at 30 min [3] is reported as 1.4 µM.

With `CC(C)(O)c1ccccc1CC[C@@H](SCC1(CC(=O)O)CC1)c1cccc(/C=C/c2ccc3ccc(Cl)cc3n2)c1` [Montelukast] the IC50 at 30 min [3] was 0.49 µM.

`O=C1C[C@@H](c2ccc(O)cc2)Oc2cc(O)cc(O)c21` [Naringenin] gave an IC50 at 30 min [3] of 11.6 µM.

`CCc1nn(CCCN2CCN(c3cccc(Cl)c3)CC2)c(=O)n1CCOc1ccccc1` [Nefazodone] showed an IC50 at 30 min [3] of 11.4 µM.

Compound `Cc1c(O)cccc1C(=O)N[C@@H](CSc1ccccc1)[C@H](O)CN1C[C@H]2CCCC[C@H]2C[C@H]1C(=O)NC(C)(C)C` [Nelfinavir] has an IC50 at 30 min [3] of 1.5 µM.

Compound `O=C(O)c1cccnc1Nc1cccc(C(F)(F)F)c1` [Niflumic acid] has an IC50 at 30 min [3] of 14.6 µM.

For `Cc1cn(-c2cc(NC(=O)c3ccc(C)c(Nc4nccc(-c5cccnc5)n4)c3)cc(C(F)(F)F)c2)cn1` [Nilotinib], the “AUCRinlet, ka 0.1 min^−1 (estimated increase in molidustat AUC)” value [2] was “more than fivefold” and the IC50 at 30 min [3] was 0.17 µM.

With `COc1ccc2[nH]c([S+]([O-])Cc3ncc(C)c(OC)c3C)nc2c1` (stereo not drawn) [Omeprazole] the IC50 at 30 min [3] was 17.1 µM.

`CC(=O)O[C@H]1C(=O)[C@@]2(C)[C@H]([C@H](OC(=O)c3ccccc3)[C@]3(O)C[C@H](OC(=O)[C@H](O)[C@@H](NC(=O)c4ccccc4)c4ccccc4)C(C)=C1C3(C)C)[C@]1(OC(C)=O)CO[C@@H]1C[C@@H]2O` [Paclitaxel] gave an IC50 at 30 min [3] of 10.8 µM.

Compound `COc1ccnc(C[S+]([O-])c2nc3ccc(OC(F)F)cc3[nH]2)c1OC` (stereo not drawn) [Pantoprazole] has an IC50 at 30 min [3] of 19.7 µM.

`O=C(O)C[C@H](O)C[C@H](O)/C=C/c1c(C2CC2)nc2ccccc2c1-c1ccc(F)cc1` [Pitavastatin] gave an IC50 at 30 min [3] of 14.8 µM.

`O=c1c(O)c(-c2ccc(O)c(O)c2)oc2cc(O)cc(O)c12` [Quercetin] showed an IC50 at 30 min [3] of 5.5 µM.

For `CN(CCOc1ccc(CC2SC(=O)NC2=O)cc1)c1ccccn1` (stereo not drawn) [Rosiglitazone], the IC50 at 30 min [3] was 10.7 µM.

In the case of `CCCc1nn(C)c2c(=O)[nH]c(-c3cc(S(=O)(=O)N4CCN(C)CC4)ccc3OCC)nc12` [Sildenafil], the IC50 at 30 min [3] is reported as 46.2 µM.

For `CNC(=O)c1cc(Oc2ccc(NC(=O)Nc3ccc(Cl)c(C(F)(F)F)c3)cc2)ccn1` [Sorafenib], the IC50 at 30 min [3] was 0.32 µM.

In the case of `O=C1C(CC[S+]([O-])c2ccccc2)C(=O)N(c2ccccc2)N1c1ccccc1` (stereo not drawn) [Sulfinpyrazone], the IC50 at 30 min [3] is reported as 31.4 µM.

With `CC1=C(CC(=O)O)c2cc(F)ccc2/C1=C\c1ccc([S+](C)[O-])cc1` (stereo not drawn) [Sulindac] the IC50 at 30 min [3] was 37.5 µM.

Compound `CCN(CC)CCNC(=O)c1c(C)[nH]c(/C=C2\C(=O)Nc3ccc(F)cc32)c1C` [Sunitinib] has an IC50 at 30 min [3] of 18.7 µM.

`C=CC[C@@H]1/C=C(\C)C[C@H](C)C[C@H](OC)[C@H]2O[C@@](O)(C(=O)C(=O)N3CCCC[C@H]3C(=O)O[C@H](/C(C)=C/[C@@H]3CC[C@@H](O)[C@H](OC)C3)[C@H](C)[C@@H](O)CC1=O)[C@H](C)C[C@@H]2OC` [Tacrolimus] gave an IC50 at 30 min [3] of 0.7 µM.

`CCCc1nc2c(C)cc(-c3nc4ccccc4n3C)cc2n1Cc1ccc(-c2ccccc2C(=O)O)cc1` [Telmisartan] showed an IC50 at 30 min [3] of 2.8 µM.

With `COc1ccc(/C=C/C(=O)Nc2ccccc2C(=O)O)cc1OC` [Tranilast] the IC50 at 30 min [3] was 1.7 µM.

For `Cc1c(F)cccc1NC(=O)Nc1ccc(Cl)c(S(=O)(=O)[C@H]2CCCNC2)c1O` [danirixin], the “drug excreted as glucuronides” value [5] is given as “approximately 90%” and the “recovered as directly conjugated parent compound” value [5] is given as 80%.

In the case of Hecogenin, the “inhibitory activity on M1 formation” value [4] is reported as “none or very little activity”, the “M1 formation in % of control in microsomal tissue, Liver” value ([4]; molidustat 4.9 µmol L^−1, n = 2) is reported as 104.7% and the “M1 formation in % of control in microsomal tissue, Intestine” value [6] is reported as 106.0%. The “M1 formation in % of control in microsomal tissue, Kidney” value [7] was 102.4%.

In the case of Molidustat glucuronide [M1], the t max ([8]; 25 mg molidustat + atazanavir 400 mg qd for 5 days) is reported as 2.0 (1.5‐4.0) H, the t max ([8]; 25 mg molidustat alone) is reported as 2.0 (1.0‐3.0) H and the “Point estimate parameter ratio, AUC” value [8, 9] is reported as 0.85 and 0.8472. The “Point estimate parameter ratio, AUC(0‐tlast)” value [8, 9] was 0.8470, the “Point estimate parameter ratio, C max” value [8, 9] was 0.80 and 0.8002 and the “reduction in systemic exposure to the glucuronide M1 with atazanavir” value ([8]; human, in vivo) was −15%. For the same compound, the “exposure to M1 in the presence of atazanavir” value ([8]; relative to molidustat alone) was “approximately 85%”.
